These results are taken from patent US7799326B2, “Methods and compositions for cathespin k complex-mediated disorders” (Mount Sinai School of Medicine, priority 2001, dated 2010).

One test has as its target T1, CSA/Cat K complex (Homo sapiens, UniProt P43235).
T1 construct: may comprise the native mature cathepsin K peptide
T1 sequence (P43235 115-329): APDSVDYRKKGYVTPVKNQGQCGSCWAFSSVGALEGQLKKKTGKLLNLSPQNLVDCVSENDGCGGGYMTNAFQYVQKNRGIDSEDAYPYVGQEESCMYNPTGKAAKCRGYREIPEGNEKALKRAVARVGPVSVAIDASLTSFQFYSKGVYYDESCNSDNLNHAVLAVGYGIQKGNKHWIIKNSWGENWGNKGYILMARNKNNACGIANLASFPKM
The test is described as follows: Fluoresceinamine-labeled CSA/Cat K complex formation fluorescence assay. In kind it is binding. Particulars: 120 nM Cat K; 0.6 μg/ml FL-CSA; excitation 300 nm, emission 604 nm. On the procedure: Curve 1: 120 nM Cat K, then 0.6 μg/ml FL-CSA, and then 3 μg/ml dextran sulfate; Curve 2:,0.6 μg/ml FL-CSA, then 120 nM Cat K, and then 3 μg/ml dextran sulfate.
The pH was adjusted to pH 11 by addition of 5 M NaOH. […] The mixture was kept overnight at 4° C. for the coupling reaction. Subsequently, the mixture was concentrated to 1 ml using a SpeedVac concentrator and purified on a PD-10 column and eluded by 50 mM sodium acetate buffer, pH 5.5.
Cat K at a final concentration of 120 nM was added to 1 ml 100 mM sodium acetate buffer, pH 5.5 containing 2 mM EDTA/DTT using 2 milliliter cuvettes. The fluorescence signal for the protein alone is close to zero. […] After the addition of complex formation inhibitors, the fluorescence signal dropped to zero (FIG. 1). This assay allows the simple and convenient screening of compounds capable to interfere with complex formation.

For test [1], the target named is T2, cathepsin K (Homo sapiens, UniProt P43235).
T2 construct: may comprise the native mature cathepsin K peptide
T2 sequence (P43235 115-329): T1 sequence (P43235 115-329)
Description: Superdex 200 gel filtration of cathepsin K preincubated with polymers. Particulars: for elution volume (Ve) of the complex with cathepsin K: 30 μg cathepsin K preincubated with 0.15% polymer, Superdex 200, no NaCl; for effect on CSA/cathepsin K complex formation: 0.15% test substance + 0.15% CSA, gel filtration; for formation of a high molecular weight complex with cathepsin K: 0.15% test substance without CSA. In kind it is binding. On the procedure: The elution buffer was 100 mM sodium acetate, pH 5.5, 1 mM EDTA/DTT.
The protein elution was recorded at OD280 nm and fractions were assayed for the hydrolysis of the cathepsin K substrate Z-Leu-Arg-MCA. […] The sample was loaded into the well of a 0.5% agarose gel and separated at room temperature at 55 V, 250 mA for 30 min in a running buffer containing 125 mM sodium acetate, pH 5.0,0.5 mM EDTA, 1 mM DTT, 40 mM NaCl, and 0.1% Chaps. The gel was dried and subsequently exposed to an X-ray film. The conditions for lane 3 were modified by the addition of 300 mM NaCl into the agarose gel and running buffer. […] Activity assays were performed using Z-LR-MCA as substrate in 100 mM sodium acetate buffer, pH 5.5, containing 2.5 mM EDTA/DTT and 0.5 nM recombinant human cathepsin K.
30 μg of cathepsin K were preincubated with elution buffer containing 0.15% low molecular fraction (V3 67.2 ml) of dermatan sulfate (DS) 0.15% 2-15 kD poly-D-Glu, or 0.15% 10 kD dextran sulfate for 20 min, and then applied to a Superdex 200 column. The elution buffer was 100 mM sodium acetate, pH 5.5, containing 1 mM EDTA/DTT.
(§1) The elution buffer was 100 mM sodium acetate, pH 5.5, 1 mM EDTA/DTT. […] The reaction was stopped by the addition of 10 μM E-64 and the samples were analyzed by 4-20% SDS-Page.
as §1, §1, §1
(In general: SEC sorts molecules by how far they enter the pores of the column.)

The target in test [2] is T2, cathepsin K. Description: Agarose gel electrophoretic mobility shift assay of cathepsin K complexes. It is filed as binding. The conditions noted are these: for effect on CSA/cathepsin K complex formation: 0.15% test polymer + 0.15% CSA, mobility shift; for affinity to cathepsin K relative to CSA: inferred from competition with 0.15% CSA. The procedure: The protein elution was recorded at OD280 nm and fractions were assayed for the hydrolysis of the cathepsin K substrate Z-Leu-Arg-MCA. […] The gel was dried and subsequently exposed to an X-ray film. […] Activity assays were performed using Z-LR-MCA as substrate in 100 mM sodium acetate buffer, pH 5.5, containing 2.5 mM EDTA/DTT and 0.5 nM recombinant human cathepsin K.
After exposure of the dried gel to an X-ray film, the signal of free cathepsin K was densitometrically determined and the amount of cathepsin K in the complex was calculated (cat Kcompley=cat Ktotal−cat Kfree).
Samples were subsequently mixed with non-reducing protein sample buffer, DNA dye, and melted agarose gel (melted at 37 C; 0.4% final concentration) at 37 C and embedded into a pre-made wells of a 0.5% agarose gel (running conditions: 25° C.; 55 V, 250 mA for 30 min). The gel was stained with toluidine blue for glycosaminoglycans and coomassie blue for protein.
In general terms: Mobility shift assays separate free from complexed probe on a gel.

Another test addresses T3, cathepsin K/CSA complex (Homo sapiens, UniProt P43235).
T3 construct: may comprise the native mature cathepsin K peptide
T3 sequence (P43235 115-329): T1 sequence (P43235 115-329)
The test is described as follows: Soluble type I collagen digestion by cathepsin K, analysed by SDS-PAGE. Particulars: 28° C.; for collagenase activity of the complex formed with cathepsin K (type I collagen): 0.15% polymer, pH 5.5; for effect on type I collagen degradation by cathepsin K in the presence of CSA: 0.15% test substance + 0.15% CSA, 800 nM cathepsin K. It is filed as biochemical. The procedure: Soluble type I bovine collagen was digested with 800 nM cathepsin K at 28° C., in 100 mM sodium acetate buffer pH 5.5, containing 2.5 mM EDTA/DTT. The reaction was stopped by the addition of 10 μM E-64 after various time periods and the samples were analyzed by 4-20% SDS-Page. […] The reaction was stopped by the addition of 10 μM E-64 after 8 h of incubation and the samples were analyzed by 4-20% SDS-polyacrylarnide electrophoresis.
Soluble type I bovine collagen was digested with 800 nM purified recombinant human cathepsin K and gelatin (soluble type I collagen was heated for 20 min at 70 C) with 0.5 nM cathepsin K at 28° C. and 37 C, in 100 mM sodium acetate buffer, pH 5.5, containing 2.5 mM EDTA/DTT. […] The reaction was stopped by the addition of 10 μM E-64 after 8 h of incubation and the samples were analyzed by 4-20% SDS-polyacrylamide electrophoresis.
The reactions were stopped by the addition of 10 μM E-64 and the samples were analyzed by 4-20% SDS-Page.
as §1, §1
The reaction was stopped by the addition of 10 μM E-64 and the samples were analyzed by 4-20% SDS-Page.
as §1, §1

Test [3] in a line: Mobility shift assay of complex formation of proteases with CSA. In kind it is binding. Particulars: 50 ng [125I]DCG-04 labeled protease; 0.1% CSA. On the procedure:
The gel was run at about 25° C. 55 V, 250 mA for 30 min, then dried and developed the radio signal on a film.

In the case of poly-alanine, the “effect on fluorescence signal of FL-CSA/Cat K complex” value (“effect … of FL-CSA/Cat K complex” for short) at CSA/Cat K complex is “did not show any effect”.

For `[Cl-].[Na+]` [NaCl], the “effect on cathepsin K complex formation” value at cathepsin K [1] (elution in the presence of 300 mM NaCl, cathepsin K/CSA mixture) is “inhibits the formation of cathepsin K complexes”. For the same molecule, the “effect on cathepsin K/CSA complex” value at cathepsin K [2] (300 mM NaCl in agarose gel and running buffer, 0.1% CSA) is “the complex dissociated”.

Take poly-D-Glu: on cathepsin K/CSA complex, the “collagenase activity of the complex formed with cathepsin K (type I collagen)” value is reported as “did not exhibit collagenase activity” and the “effect on type I collagen degradation by cathepsin K in the presence of CSA” value (shortened to “effect on type I collagen degradation”) is “prevents the degradation of type I collagen”. At cathepsin K [1], the “elution volume (Ve) of the complex with cathepsin K” value (“elution volume (Ve) of the complex” below) stood at 14.2 mL and the “effect on CSA/cathepsin K complex formation” value is listed as “prevented the formation of a cathepsin K/CSA complex”. In addition, on cathepsin K [2], the “effect on CSA/cathepsin K complex formation” value is reported as “blocked” and the “affinity to cathepsin K relative to CSA” value is on record as “bind with a higher affinity to cathepsin K than CSA”.

Turning to dextran, the “effect … of FL-CSA/Cat K complex” value on CSA/Cat K complex was “did not show any effect”. The “effect on type I collagen degradation” value at cathepsin K/CSA complex was “identical”. Also, at cathepsin K [1], the “formation of a high molecular weight complex with cathepsin K” value was “did not form a high molecular weight complex with cathepsin K”.

Regarding dermatan sulfate, the “effect … of FL-CSA/Cat K complex” value at CSA/Cat K complex was “decrease the fluorescence signal”. The “elution volume (Ve) of the complex” value at cathepsin K [1] amounted to 14 mL.

As to poly-glutamic acid, the “effect … of FL-CSA/Cat K complex” value at CSA/Cat K complex was “decrease the fluorescence signal”.

On to poly-aspartic acid, for which, at CSA/Cat K complex, the “effect … of FL-CSA/Cat K complex” value is “decrease the fluorescence signal”.

For the molecule heparan sulfate, on CSA/Cat K complex, the “effect … of FL-CSA/Cat K complex” value is “decrease the fluorescence signal”.

As for “Cat L: human cathepsin L, closely related cysteine protease”, the “complex formation with CSA” value in test [3] is on record as “Only cathepsin K formed a stable complex”.

With `CC(=O)N[C@H]1C(O)O[C@H](CO)[C@H](OS(=O)(=O)O)[C@@H]1O[C@@H]1OC(C(=O)O)=C[C@H](O)[C@H]1O` (stereo partly drawn) [CSA disaccharide, chondroitin disaccharide-4S], the “effect … of FL-CSA/Cat K complex” value at CSA/Cat K complex is reported as “did not show any effect”. In addition, the “effect on type I collagen degradation” value on cathepsin K/CSA complex is “identical”. At cathepsin K [1], the “effect on CSA/cathepsin K complex formation” value is “did not interfere with complex formation” and the “formation of a high molecular weight complex with cathepsin K” value is recorded as “unable to generate high-molecular complexes with cathepsin K”.

Regarding dextran sulfate, the “effect … of FL-CSA/Cat K complex” value on CSA/Cat K complex is “decrease the fluorescence signal”. Further, on cathepsin K/CSA complex, the “collagenase activity of the complex formed with cathepsin K (type I collagen)” value was “did not exhibit collagenase activity” and the “effect on type I collagen degradation” value is reported as “prevents the degradation of type I collagen”. Also, on cathepsin K [1], the “elution volume (Ve) of the complex” value stood at 13.5 mL and the “effect on CSA/cathepsin K complex formation” value is “prevented the formation of a cathepsin K/CSA complex”. Also, at cathepsin K [2], the “effect on CSA/cathepsin K complex formation” value is reported as “blocked” and the “affinity to cathepsin K relative to CSA” value is recorded as “bind with a higher affinity to cathepsin K than CSA”.

Take poly-lysine: on CSA/Cat K complex, the “effect … of FL-CSA/Cat K complex” value is on record as “did not show any effect”.
